One assay deals with iPSC-derived astrocytes. In words: Calcium transients in iPSC-derived astrocytes in response to stimuli. Type of assay: cell-based, human. The following applies: DMSO as control treatment, FIG. 15.
The conditions of assay [1]: as described in Sidrauski et al.; cited from earlier work.

Regarding `Nc1ncnc2c1ncn2[C@@H]1O[C@H](COP(=O)(O)OP(=O)(O)OP(=O)(O)O)[C@@H](O)[C@H]1O` [ATP], the intracellular calcium levels result in the assay on iPSC-derived astrocytes is given as “increase of intracellular calcium levels”.
On the same count and under the same terms, next, `[Cl-].[K+]` [KCL]: “increase of intracellular calcium levels”.
As for `N[C@@H](CCC(=O)O)C(=O)O` [glutamate], in the assay with iPSC-derived astrocytes, the intracellular calcium levels result is on record as “increase of intracellular calcium levels”.
On to `O=C(COc1ccc(Cl)cc1)N[C@H]1CC[C@H](NC(=O)COc2ccc(Cl)cc2)CC1` [trans-ISRIB, N,N′-((1r,4r)-cyclohexane-1,4-diyl)bis(2-(4-chlorophenoxy)acetamide)], for which, in assay [1], the IC50 is 5 nM and the “potency of trans-ISRIB relative to cis-ISRIB” value is listed as 100 fold.

As usually defined, the IC50 is the concentration at which inhibition is half-maximal.

Values taken from US12729367B2, “Radial glia and astrocyte differentiation from human pluripotent stem cells” (The United States of America, as represented by the …, priority 2020, dated 2026).
